Experimental findings from PubChem BioAssay (NCI) are described below.

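Five compound concentrations were applied to cells in 96-well plates for 48 hours; endpoints were derived by simple linear interpolation of the resulting dose-response curve. The concentration for 50% growth inhibition is given as GI50. At the TGI there is no net growth.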

Test systems include BT-549 breast; CAKI-1 renal; NCI-H460 lung; NCI-H522 lung; OVCAR-3 ovarian; SK-MEL-2 melanoma; SK-MEL-5 melanoma; UACC-257 melanoma; UO-31 renal; SF-295 CNS.
Holding throughout (test): growth of human tumour cells (NCI), 48 h

With `COc1ccc(/C=C/C(=O)c2ccc(OC)c(OC)c2)cc1O`, the GI50 in the assay on BT-549 breast was 5.5 µM; in the assay with CAKI-1 renal, 18.1 µM; in the assay on NCI-H460 lung it was 3.44 µM; in the assay with NCI-H522 lung, 3.42 µM; in the assay on OVCAR-3 ovarian, 2.56 µM; in the assay on SK-MEL-2 melanoma, 14.9 µM. In addition, the GI50 in the assay on SK-MEL-5 melanoma is 5.9 µM; with UACC-257 melanoma, 13.8 µM; in the assay with UO-31 renal, 5.83 µM. For the same compound, the TGI with BT-549 breast is 17.4 µM; with CAKI-1 renal it was > 100 µM; in the assay on NCI-H460 lung, 11.8 µM; in the assay on NCI-H522 lung, 12.4 µM; in the assay on OVCAR-3 ovarian, 6.31 µM; in the assay on SK-MEL-2 melanoma, 32.9 µM. The TGI with SK-MEL-5 melanoma was 18.8 µM; in the assay with UACC-257 melanoma, 26.9 µM; with UO-31 renal it was 19.2 µM.

Consider `COc1cc(C(=O)Nc2cc(OC)c3ccn(C)c3c2)cc2c1C[C@]1(C)CC[C@@H](O)C(C)(C)[C@H]1O2`, for which the GI50 is 0.558 µM in the assay with BT-549 breast; 0.586 µM in the assay with NCI-H460 lung; 1.44 µM with NCI-H522 lung; 1.68 µM in the assay with OVCAR-3 ovarian; 0.0302 µM in the assay with SF-295 CNS; 0.323 µM in the assay with SK-MEL-2 melanoma. The figures for the GI50 with SK-MEL-5 melanoma, in the assay on UACC-257 melanoma and with UO-31 renal were 0.384 µM, 1.63 µM and 0.0988 µM, respectively. Moreover, the TGI with BT-549 breast was 30.3 µM; in the assay with NCI-H460 lung, > 100 µM; with NCI-H522 lung, 7.4 µM; with OVCAR-3 ovarian, 4.86 µM; in the assay with SF-295 CNS it was 0.143 µM; in the assay with SK-MEL-2 melanoma, 4.48 µM. Also, the TGI in the assay with SK-MEL-5 melanoma worked out at 1.72 µM; in the assay on UACC-257 melanoma, 30.7 µM; in the assay on UO-31 renal, 1.17 µM.

With `OCc1ccc(N2CCc3ccccc3C2)cc1Cl`, the GI50 with BT-549 breast was 17.7 µM; in the assay with CAKI-1 renal, 0.568 µM; with NCI-H460 lung, < 0.0179 µM; in the assay on NCI-H522 lung it was 17.2 µM; in the assay with OVCAR-3 ovarian, < 0.0161 µM; with UO-31 renal, 8.28 µM. Besides, the TGI with BT-549 breast was 40.8 µM; with CAKI-1 renal, 14.1 µM; in the assay with NCI-H460 lung, 0.174 µM; with NCI-H522 lung, 61.1 µM; with OVCAR-3 ovarian, 0.0389 µM; with UO-31 renal it was 55.8 µM.

Consider `CC(=O)Oc1ccc(/C(=C(\C)c2ccc(Cl)cc2)c2ccc(OCCN3CCCCC3)cc2)cc1`, for which the GI50 with BT-549 breast was 1.83 µM; in the assay with NCI-H460 lung, 1.91 µM; in the assay with NCI-H522 lung, 1.71 µM; with OVCAR-3 ovarian it was 1.65 µM; in the assay on SF-295 CNS, 1.72 µM; in the assay with SK-MEL-2 melanoma, 1.85 µM. The figures for the GI50 with SK-MEL-5 melanoma, in the assay on UACC-257 melanoma and in the assay with UO-31 renal were 1.69 µM, 2.05 µM and 1.59 µM, respectively. The TGI in the assay on BT-549 breast was 3.58 µM; in the assay on NCI-H460 lung it was 3.66 µM; in the assay on NCI-H522 lung, 3.49 µM; in the assay with OVCAR-3 ovarian it was 3.25 µM; in the assay with SF-295 CNS, 3.27 µM; in the assay on SK-MEL-2 melanoma, 3.56 µM. In addition, the TGI in the assay on SK-MEL-5 melanoma came out at 3.07 µM; in the assay with UACC-257 melanoma, 4.11 µM; with UO-31 renal, 3.09 µM.

With `Clc1cc(Cl)cc(N2N=C(c3cccc(Nc4ccncc4)c3)CC2c2ccc3c(c2)OCO3)c1` (stereo not drawn), the GI50 with BT-549 breast was 1.7 µM; in the assay on CAKI-1 renal, 1.54 µM; with NCI-H460 lung, 1.76 µM; in the assay on OVCAR-3 ovarian, 1.73 µM; with SF-295 CNS, 1.77 µM; with SK-MEL-5 melanoma, 1.77 µM. In addition, the GI50 in the assay on UO-31 renal is 1.36 µM. Moreover, the TGI in the assay on BT-549 breast was 3.3 µM; in the assay on CAKI-1 renal, 2.9 µM; in the assay on NCI-H460 lung it was 3.34 µM; in the assay with OVCAR-3 ovarian it was 3.27 µM; in the assay with SF-295 CNS, 3.2 µM; in the assay with SK-MEL-5 melanoma it was 3.21 µM. The TGI in the assay on UO-31 renal was determined as 2.67 µM.

Turning to `CS(=O)(=O)CC(=O)c1ccccc1`, the TGI in the assay on BT-549 breast, in the assay on NCI-H460 lung, in the assay on NCI-H522 lung, in the assay with OVCAR-3 ovarian, in the assay with SF-295 CNS and in the assay on SK-MEL-2 melanoma was > 100 µM throughout. Further, the TGI with SK-MEL-5 melanoma, in the assay with UACC-257 melanoma and with UO-31 renal was > 100 µM each time.

On to `NCOC(=O)Cc1ccc(Br)cc1`, for which the TGI with BT-549 breast, in the assay on NCI-H460 lung, with NCI-H522 lung, in the assay with OVCAR-3 ovarian, with SF-295 CNS and in the assay with SK-MEL-2 melanoma was > 100 µM each time. The TGI in the assay on SK-MEL-5 melanoma, in the assay on UACC-257 melanoma and in the assay on UO-31 renal was > 100 µM throughout.

On to `CN(C)c1ccc(/C=C/C2=[N+](C)c3ccccc3C2(C)C)cc1`, for which the GI50 is 0.467 µM in the assay with BT-549 breast; 4.69 µM with CAKI-1 renal; 0.746 µM in the assay on NCI-H460 lung; 0.587 µM in the assay on NCI-H522 lung; 0.301 µM in the assay on OVCAR-3 ovarian; 1.12 µM with SF-295 CNS. The values for the GI50 in the assay on SK-MEL-2 melanoma, in the assay on UACC-257 melanoma and in the assay with UO-31 renal were 1.61 µM, 0.658 µM and 2.61 µM, respectively. Further, the TGI was 12.6 µM in the assay on BT-549 breast; > 100 µM in the assay with CAKI-1 renal; 10.7 µM in the assay on NCI-H460 lung; 10.1 µM in the assay on NCI-H522 lung; 12.3 µM in the assay with OVCAR-3 ovarian; 6.64 µM in the assay with SF-295 CNS. The TGI in the assay on SK-MEL-2 melanoma was found to be 16.8 µM; with UACC-257 melanoma it was 6.17 µM; with UO-31 renal it was 83.3 µM.

Consider `O=C1c2cc([N+](=O)[O-])ccc2-c2ccc3c4ccc5c6c(ccc(c7ccc1c2c73)c64)C(=O)c1cc([N+](=O)[O-])ccc1-5`, for which the TGI in the assay with BT-549 breast, in the assay on CAKI-1 renal, with NCI-H522 lung, with OVCAR-3 ovarian, in the assay with SF-295 CNS and in the assay on SK-MEL-2 melanoma was > 100 µM throughout. Further, the TGI in the assay on SK-MEL-5 melanoma, in the assay on UACC-257 melanoma and with UO-31 renal was > 100 µM each time.

Regarding `NCC1OC(OC2C(CO)OC(OC3C(O)C(N)CC(N)C3OC3OC(CO)C(O)CC3N)C2O)C(N)C(O)C1OC1OC(CO)C(O)C(O)C1O` (stereo not drawn), the GI50 with BT-549 breast, in the assay on CAKI-1 renal, in the assay on NCI-H460 lung, in the assay with OVCAR-3 ovarian, in the assay on SF-295 CNS and with SK-MEL-2 melanoma was > 50 mg/L each time. The GI50 with SK-MEL-5 melanoma, in the assay with UACC-257 melanoma and with UO-31 renal was > 50 mg/L in each case. Moreover, the TGI with BT-549 breast, in the assay on CAKI-1 renal, with NCI-H460 lung, in the assay with OVCAR-3 ovarian, in the assay with SF-295 CNS and with SK-MEL-2 melanoma was > 50 mg/L throughout. The TGI with SK-MEL-5 melanoma, in the assay with UACC-257 melanoma and in the assay with UO-31 renal was > 50 mg/L throughout.

`COC1=CC(c2ccc[nH]2)=N/C1=C\c1[nH]c(C)c(C(=O)CCCCC(=O)Oc2ccc3c(c2)CCC2C3CC[C@]3(C)[C@@H](O)CC[C@@H]23)c1C` (stereo partly drawn): the GI50 in the assay with BT-549 breast is 4.39 µM; with CAKI-1 renal, 5.45 µM; in the assay on NCI-H460 lung, 5.71 µM; with OVCAR-3 ovarian, > 100 µM; in the assay with SF-295 CNS it was > 100 µM; in the assay on SK-MEL-2 melanoma, 9.88 µM. Further, the GI50 was 3.63 µM with SK-MEL-5 melanoma, > 100 µM in the assay with UACC-257 melanoma and 5.08 µM with UO-31 renal. For the same compound, the TGI in the assay on BT-549 breast, in the assay with CAKI-1 renal, in the assay with NCI-H460 lung, in the assay with OVCAR-3 ovarian, in the assay with SF-295 CNS and in the assay with SK-MEL-2 melanoma was > 100 µM in each case. The TGI in the assay on SK-MEL-5 melanoma, in the assay on UACC-257 melanoma and in the assay with UO-31 renal was > 100 µM each time.

On to `COc1ccc(C2=NN(C(=O)c3cc(OC)c(OC)c(OC)c3)C(c3ccc(N(C)C)cc3)C2)cc1` (stereo not drawn), for which the GI50 was 1.58 µM in the assay on BT-549 breast; 0.397 µM with NCI-H460 lung; 0.352 µM in the assay with NCI-H522 lung; 0.284 µM with OVCAR-3 ovarian; 0.339 µM in the assay with SF-295 CNS; 83.5 µM in the assay on SK-MEL-2 melanoma. The GI50 with SK-MEL-5 melanoma is 0.424 µM; in the assay with UACC-257 melanoma it was 97.6 µM; with UO-31 renal, 0.558 µM. Also, the TGI in the assay on BT-549 breast was > 100 µM; with OVCAR-3 ovarian, 4.7 µM; with SF-295 CNS, 40.4 µM; in the assay with SK-MEL-2 melanoma, > 100 µM; in the assay with SK-MEL-5 melanoma, 4.88 µM; in the assay on UACC-257 melanoma, > 100 µM. Moreover, the TGI in the assay on UO-31 renal was > 100 µM.

`CC(=O)c1cc(C(=O)c2ccc3c(c2)Sc2ccccc2N3)c2cc(C)ccn12`: the GI50 is 0.251 µM in the assay with BT-549 breast; 0.053 µM with CAKI-1 renal; 0.0465 µM in the assay on NCI-H460 lung; 0.0412 µM with NCI-H522 lung; 0.0323 µM with OVCAR-3 ovarian; 0.036 µM with SF-295 CNS. The GI50 in the assay with SK-MEL-2 melanoma is 81.4 µM; with SK-MEL-5 melanoma, 0.122 µM; with UO-31 renal, 0.0515 µM. The TGI in the assay on BT-549 breast is > 100 µM; in the assay with CAKI-1 renal, > 100 µM; in the assay on NCI-H460 lung, > 100 µM; in the assay on NCI-H522 lung, > 100 µM; with OVCAR-3 ovarian, 0.112 µM; with SF-295 CNS, 4.15 µM. Moreover, the TGI with SK-MEL-2 melanoma was > 100 µM; with SK-MEL-5 melanoma, 5.56 µM; in the assay on UO-31 renal it was > 100 µM.

In the case of `COc1ccc(C2C=C(c3ccc4c(c3)OCO4)Oc3c2c(=O)oc2ccccc32)cc1OC` (stereo not drawn), the TGI in the assay with BT-549 breast is > 100 µM; in the assay on CAKI-1 renal, > 100 µM; in the assay with NCI-H460 lung it was > 100 µM; in the assay with NCI-H522 lung, > 66.3 µM; in the assay with OVCAR-3 ovarian, 15.5 µM; in the assay on SF-295 CNS, > 100 µM. Also, the TGI in the assay on SK-MEL-5 melanoma and in the assay with UO-31 renal was > 100 µM each time.
